Reference: patent US20020193319A1, “Use of EGF genistein to prevent development of EGF-receptor expressing cancers” (Parker Hughes Institute, priority 1999, published 2002)
Like-named read-outs stand apart in the source and are kept apart here.

Key:
[1] = tested on: MDA-MB-231 cells; assay: FACS MC540/propidium iodide apoptosis assay; format: cell-based, human; details: 24 hours
Method: Fluorescence activated cell sorting (FACS) was used to sort MDA-MB-231 cells (breast cancer cells expressing EGF-Rc). The cells were treated with either PBS EFG-Genistein (0.1, 1, and 10 μM) or unconjugated Geninstein (1, 10, and 100 μM) and incubated for 24 hours. The cells were then stained with MC-540 and propidium iodide. Single MC540 fluorescence (S-MC540) indicates the cell is at an early stage of apoptosis. Dual MC540/propidium iodide fluorescence (D-MC540/PI) indicates the cell is at an advanced stage of apoptosis. The total apoptotic fraction (TAF) is calculated as the percentage of MC540 fluorescent cells plus the percentage of MC540/propidium iodide double fluorescent cells.

[2] = tested on: Neu mediated mammary tumors; assay: Prevention of spontaneous breast cancer in Neu/erbB2 transgenic mice; format: in vivo
Method: Neu/erbB2 transgenic mice were chosen because they overexpress the Neu protooncogene in their mammary glands.
As a control, 29 Neu/erbB2 mice were treated with PBS.

[3] = tested on: human breast cancer (MDA-MB-231) xenografts; format: in vivo; details: 100 μg/kg/day intraperitoneally for 10 days, followed 20 days, vs PBS or unconjugated Genistein
Method: The tumor diameter was determined daily for 20 days from the start of therapy. Control mice were treated with 0.2 ml of PBS for 10 consecutive days or unconjugated Genistein at a concentration of 500 μg/kg/day for 10 days. P values were determined using Student's t test.

## EGF: Human epidermal growth factor, six kilodalton 53 amino acid single-chain polypeptide
[1]; 1 μM
  % D-MC540/PI (Dual MC540/propidium iodide, advanced stage of apoptosis): 0.8%
  % S-MC540 (Single MC540, early stage of apoptosis): 5.5%
  % TAF (total apoptotic fraction: Single MC540 plus Dual MC540/propidium iodide): 6.3%
[1]; 10 μM
  % D-MC540/PI (Dual MC540/propidium iodide, advanced stage of apoptosis): 1.2%
  % S-MC540 (Single MC540, early stage of apoptosis): 9.5%
  % TAF (total apoptotic fraction: Single MC540 plus Dual MC540/propidium iodide): 10.7%
[1]; 100 μM
  % D-MC540/PI (Dual MC540/propidium iodide, advanced stage of apoptosis): 2.0%
  % S-MC540 (Single MC540, early stage of apoptosis): 13.5%
  % TAF (total apoptotic fraction: Single MC540 plus Dual MC540/propidium iodide): 15.5%

## EGF-Genistein: Genistein conjugated to epidermal growth factor (EGF), prepared as in Example 1 of U.S. Pat. No. 5,911,995
[1]; 0.1 μM
  % S-MC540 (Single MC540, early stage of apoptosis): 78.8%
  % TAF (total apoptotic fraction: Single MC540 plus Dual MC540/propidium iodide): 98.7%
[1]; 1 μM
  % D-MC540/PI (Dual MC540/propidium iodide, advanced stage of apoptosis): 36.6%
  % S-MC540 (Single MC540, early stage of apoptosis): 61.0%
  % TAF (total apoptotic fraction: Single MC540 plus Dual MC540/propidium iodide): 97.6%
[1]; 10 μM
  % D-MC540/PI (Dual MC540/propidium iodide, advanced stage of apoptosis): 56.7%
  % S-MC540 (Single MC540, early stage of apoptosis): 42.2%
  % TAF (total apoptotic fraction: Single MC540 plus Dual MC540/propidium iodide): 98.9%
[2]; 100 μg 1× per week for 10 weeks
  side effects: not associated with any side effects
[2]; 100 μg subcutaneously 1× per week for 10 weeks (5 mg/kg), from 4 months old, n=10
  mice that developed breast cancer: 40%
[3]; 0.5 cm xenograft, FIG. 3A
  tumor progression (tumor diameter): reversed
[3]; 1.0 cm xenograft, FIG. 3B
  tumor progression (tumor diameter): slowed
